Where two headings read alike, the source gives them in different places.
Biological target: T1, GABAA-α5 receptors (Homo sapiens, UniProt P18507+P31644)
T1 construct: occupancy at the GABAA-α5 subunit-containing receptors in the human brain after oral dosing; from tissue; host or cells: brain of healthy human volunteers, in vivo PET
T1 sequence (P31644 32-462): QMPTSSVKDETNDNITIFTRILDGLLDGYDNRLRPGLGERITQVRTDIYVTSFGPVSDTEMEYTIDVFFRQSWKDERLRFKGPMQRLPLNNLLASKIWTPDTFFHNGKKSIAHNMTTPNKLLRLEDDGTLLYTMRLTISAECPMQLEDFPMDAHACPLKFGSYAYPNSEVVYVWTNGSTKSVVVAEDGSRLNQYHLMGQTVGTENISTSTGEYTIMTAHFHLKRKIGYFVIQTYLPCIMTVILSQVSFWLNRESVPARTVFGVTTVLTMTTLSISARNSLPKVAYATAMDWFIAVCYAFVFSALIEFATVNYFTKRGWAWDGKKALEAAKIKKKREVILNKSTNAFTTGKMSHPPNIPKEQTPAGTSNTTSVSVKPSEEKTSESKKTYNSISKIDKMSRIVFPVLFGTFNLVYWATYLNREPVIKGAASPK
T1 sequence (P18507 40-467 limits assumed): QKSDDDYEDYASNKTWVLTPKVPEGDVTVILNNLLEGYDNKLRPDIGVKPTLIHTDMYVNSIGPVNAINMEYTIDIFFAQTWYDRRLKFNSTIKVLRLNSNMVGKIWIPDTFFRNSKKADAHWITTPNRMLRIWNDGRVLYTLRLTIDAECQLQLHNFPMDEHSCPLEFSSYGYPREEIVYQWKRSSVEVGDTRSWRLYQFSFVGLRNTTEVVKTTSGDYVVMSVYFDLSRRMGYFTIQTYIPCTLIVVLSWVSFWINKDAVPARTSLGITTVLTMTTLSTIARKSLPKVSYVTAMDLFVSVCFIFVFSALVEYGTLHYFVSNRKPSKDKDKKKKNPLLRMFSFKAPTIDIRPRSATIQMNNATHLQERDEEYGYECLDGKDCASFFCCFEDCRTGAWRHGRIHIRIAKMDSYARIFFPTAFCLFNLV
T1 sequence (P28472 26-473 partner): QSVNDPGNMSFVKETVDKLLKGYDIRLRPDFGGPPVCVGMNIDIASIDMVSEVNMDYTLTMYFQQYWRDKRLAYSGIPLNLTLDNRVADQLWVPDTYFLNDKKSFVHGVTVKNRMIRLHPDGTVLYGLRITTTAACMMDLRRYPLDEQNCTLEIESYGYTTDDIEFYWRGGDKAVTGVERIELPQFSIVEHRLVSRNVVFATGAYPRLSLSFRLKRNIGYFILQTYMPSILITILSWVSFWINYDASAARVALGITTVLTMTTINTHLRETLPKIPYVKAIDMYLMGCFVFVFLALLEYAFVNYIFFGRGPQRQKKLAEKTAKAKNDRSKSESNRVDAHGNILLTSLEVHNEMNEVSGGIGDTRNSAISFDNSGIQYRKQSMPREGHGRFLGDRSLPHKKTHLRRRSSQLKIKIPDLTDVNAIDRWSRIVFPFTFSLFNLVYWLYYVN
Assay: [11C]-Ro 15-4513 PET receptor occupancy study in healthy volunteers
Format: in vivo
Conditions: for EC50: Emax model, nine subjects
Excerpt: The PET study was undertaken as part of Protocol BP25611 and after four protocol amendments was described as: “A single-center, single blind molecular and functional imaging study to assess GABAA-α5 receptor expression, occupancy and functional connectivity in the brains of individuals with Down syndrome and healthy controls following a single oral administration of RO5186582 or placebo”. Full details of the protocol can be found in the Supplementary Information. The study was registered on August 17, 2012 with clinicaltrials.gov identifier NCT01667367.
Subjects returned for a follow-up visit approximately 7 to 10 days after their last dose of study medication.
The study was single-blind, i.e., subjects were blinded to dose. Blood sampling was performed at four different timepoints starting 30 min before the post dose PET scan.
Tissue time activity curves were analyzed using the simplified reference tissue model (SRTM[71]), with a basis pursuit implementation of the SRTM[72], to directly estimate the binding potential (BPND) in all target regions. […] Therefore, the time-activity curve derived from the cerebellum was used as an input for SRTM analysis.
Occupancy in scan 2 was estimated as a fractional reduction in the relevant baseline BPND (see Eq. (3)).3 Occ=BPNDBaseline-BPNDBasmisanil/BPNDBaseline.
The pharmacokinetic/pharmacodynamic population for GABAA-α5 receptor occupancy consisted of data from 9 subjects.

[1] = subject 11010, 40 mg, 3.75 h prior to scan
[2] = subject 11020, 160 mg, 3.12 h prior to scan
[3] = subject 11021, 160 mg, 3.00 h prior to scan
[4] = subject 13010, 40 mg, 2.63 h prior to scan
[5] = subject 13030, 1000 mg, 4.75 h prior to scan
[6] = subject 13031, 1000 mg, 4.77 h prior to scan
[7] = subject 13040, 20 mg, 1.48 h prior to scan
[8] = subject 13041, 20 mg, 2.20 h prior to scan
[9] = subject 13050, 80 mg, 2.43 h prior to scan

Cc1onc(-c2ccc(F)cc2)c1COc1ccc(C(=O)N2CCS(=O)(=O)CC2)cn1 [basmisanil]
EC50 (read-out: EC50 of receptor occupancy, free plasma concentration): 67 nM
EC50 (read-out: EC50 of receptor occupancy, total plasma concentration (converted)): ~1210 nM
Receptor occupancy, Accumbens [1]: 52.1%
Receptor occupancy, Amygdala [1]: 53.5%
Receptor occupancy, Anterior cingulate [1]: 44.8%
Receptor occupancy, Hippocampus [1]: 48.4%
Receptor occupancy, Insular cortex [1]: 44.6%
Receptor occupancy, Mean [1]: 48.68%
Receptor occupancy, Accumbens [2]: 86.6%
Receptor occupancy, Amygdala [2]: 91.4%
Receptor occupancy, Anterior cingulate [2]: 75.6%
Receptor occupancy, Hippocampus [2]: 87.2%
Receptor occupancy, Insular cortex [2]: 75.2%
Receptor occupancy, Mean [2]: 83.2%
Receptor occupancy, Accumbens [3]: 87.0%
Receptor occupancy, Amygdala [3]: 85.4%
Receptor occupancy, Anterior cingulate [3]: 76.4%
Receptor occupancy, Hippocampus [3]: 85.9%
Receptor occupancy, Insular cortex [3]: 77.2%
Receptor occupancy, Mean [3]: 82.38%
Receptor occupancy, Accumbens [4]: 37.3%
Receptor occupancy, Amygdala [4]: 40%
Receptor occupancy, Anterior cingulate [4]: 32.7%
Receptor occupancy, Hippocampus [4]: 41.3%
Receptor occupancy, Insular cortex [4]: 32%
Receptor occupancy, Mean [4]: 36.66%
Receptor occupancy, Accumbens [5]: 89.5%
Receptor occupancy, Amygdala [5]: 93.1%
Receptor occupancy, Anterior cingulate [5]: 79.1%
Receptor occupancy, Hippocampus [5]: 94.2%
Receptor occupancy, Insular cortex [5]: 79.9%
Receptor occupancy, Mean [5]: 87.16%
Receptor occupancy, Accumbens [6]: 93.7%
Receptor occupancy, Amygdala [6]: 97.4%
Receptor occupancy, Anterior cingulate [6]: 82.1%
Receptor occupancy, Hippocampus [6]: 94.9%
Receptor occupancy, Insular cortex [6]: 82.2%
Receptor occupancy, Mean [6]: 90.06%
Receptor occupancy, Accumbens [7]: 29.6%
Receptor occupancy, Amygdala [7]: 30.9%
Receptor occupancy, Anterior cingulate [7]: 26.2%
Receptor occupancy, Hippocampus [7]: 26.8%
Receptor occupancy, Insular cortex [7]: 26.7%
Receptor occupancy, Mean [7]: 28.04%
Receptor occupancy, Accumbens [8]: 31.8%
Receptor occupancy, Amygdala [8]: 34.7%
Receptor occupancy, Anterior cingulate [8]: 31.7%
Receptor occupancy, Hippocampus [8]: 35.8%
Receptor occupancy, Insular cortex [8]: 31.7%
Receptor occupancy, Mean [8]: 33.14%
Receptor occupancy, Accumbens [9]: 64.2%
Receptor occupancy, Amygdala [9]: 63.5%
Receptor occupancy, Anterior cingulate [9]: 55.8%
Receptor occupancy, Hippocampus [9]: 63%
Receptor occupancy, Mean [9]: 60.86%

Source: publication PMC8032764 (Scientific Reports, 2021)
